{"source": "patent US11799117B2", "about": "“Flow batteries incorporating a nitroxide compound within an aqueous electrolyte solution” (LOCKHEED MARTIN ENERGY, LLC, priority 2016, dated 2023)", "assay_type_in_all_cases": "physicochemical", "key": {"Aqueous solubility": {"test": "Aqueous solubility", "description": "(§1) First, it has a reduction potential of approximately 0.6 V versus a saturated calomel electrode, which is desirably higher than that of iron hexacyanide coordination compounds (increase of 0.25 V)."}, "[1]": {"test": "Electrochemical kinetics by cyclic voltammetry", "details": "also in alkaline aqueous electrolyte solutions; substantially reversible = anodic/cathodic peak difference less than about 0.3 V", "description": "The high positive half-cell reduction potentials can provide significant advantages when incorporated in flow batteries, particularly in comparison to the commonly used iron hexacyanide coordination compounds. The high positive reduction potential can allow improved open circuit potential, voltage efficiency and current efficiency values to be realized. In addition, the improved solubility of many nitroxide compounds compared to iron hexacyanide coordination compounds allows improved energy density values to be realized.\nThe nitroxide compound defined by Structure 12 has the chemical name [2,2,6,6-tetramethyl-4-(sulfooxy)piperidin-1-yl]oxidanyl (also referred to herein as TEMPOSO). Without being bound by any theory or mechanism, it is believed that the sulfate (sulfooxy) group can stabilize the nitroxide group when the six-membered ring is in its “boat”, configuration. […] Under alkaline aqueous solutions, the deprotonated anionic form of Structure 12 can be stabilized after oxidation of the radical through lone pair donation from the sulfooxy group to the resulting nitrogen-centered cation.\nas §1"}, "[2]": {"test": "Conductivity of aqueous solution", "details": "1 M aqueous solution, pH 11, absence of other electrolytes", "description": "as §1"}, "[3]": {"test": "Reduction potential versus a saturated calomel electrode", "description": "as §1"}}}
{"substance": "[2,2,6,6-tetramethyl-4-(sulfooxy)piperidin-1-yl]oxidanyl [TEMPOSO]", "values": [{"measurement": "aqueous solubility", "setting": "Aqueous solubility", "result": "≥ 1800", "unit": "mM"}, {"measurement": "electrochemical kinetics", "setting": "[1]", "result": "substantially reversible"}, {"measurement": "conductivity", "setting": "[2]", "result": "about 50 mS/cm"}, {"measurement": "increase of reduction potential over iron hexacyanide coordination compounds", "setting": "[3]", "result": 0.25, "unit": "V"}, {"measurement": "reduction potential", "setting": "[3]", "result": "approximately 0.6 V"}]}
